The term MIC denotes the least concentration at which growth counts as inhibited. A higher MIC goes with a need for much substance.

Among the test systems are Escherichia coli 078; Escherichia coli UB1005; Streptococcus agalactiae; Bacillus subtilis 168; Escherichia coli B; Pseudomonas aeruginosa; Staphylococcus aureus; Escherichia coli DC2.
What all share (test): ≥ marks a high value that may be exact or a test limit, other limits are often not marked, values filed in µg/mL are converted to µM
Experiment [1] deals with Escherichia coli ATCC 25922.
In experiment [2] the test system is Lacticaseibacillus rhamnosus 7469.
Experiment [3] deals with Pseudomonas aeruginosa ATCC 27853.
For experiment [4], the system named is Salmonella enterica subsp. enterica serovar Pullorum ATCC 7913.
The subject of experiment [5] is Salmonella enterica subsp. enterica serovar Typhimurium ATCC 14028.
Experiment [6] concerns Salmonella enterica subsp. enterica serovar Typhimurium C77-31.
Experiment [7] has as its system Staphylococcus aureus ATCC 25923.
In experiment [8] the test system is Staphylococcus aureus ATCC 29213.
In experiment [9] the test system is Staphylococcus epidermidis ATCC 12228.
Experiment [10] deals with Streptococcus agalactiae CICC 10465.
Experiment [11] has as its system Streptococcus thermophilus YM-C.
The test system of experiment [12] is Candida albicans F7-39/IDE99.
The test system of experiment [13] is Micrococcus luteus CCM 144.
Experiment [14] has as its system Corynebacterium xerosis C875.
Experiment [15] has as its system Staphylococcus epidermidis C621.

In brackets after ≈: the same amount, converted by molar mass. Bounds are passed on as bounds.

Take `CC[C@H](C)[C@H](NC(=O)[C@H](CC(C)C)NC(=O)[C@@H](NC(=O)[C@@H](N)CC(=O)O)[C@@H](C)CC)C(=O)N[C@H](C(=O)N[C@H](C(=O)NCC(=O)NCC(=O)N[C@@H](CCCCN)C(=O)N[C@@H](CC(=O)O)C(=O)N[C@@H](CCCN=C(N)N)C(=O)N[C@@H](CCCCN)C(=O)N[C@@H](CCCCN)C(=O)N[C@@H](CCCN=C(N)N)C(=O)N[C@@H](CCCN=C(N)N)C(=O)N[C@@H](CCCN=C(N)N)C(N)=O)C(C)C)[C@@H](C)CC` [DILIIVGGKDRKKRRR]: the minimum inhibitory concentration (MIC) was not below 32 µM against Escherichia coli 078; 8 µM (≈ 15.4 µg/mL) in [1]; not below 32 µM against Escherichia coli UB1005; not below 64 µM in experiment [2]; more than 64 µM in experiment [3]; 8 µM (≈ 15.4 µg/mL) in experiment [4]. Moreover, the minimal inhibitory concentration (MIC) in experiment [5] was more than 64 µM; in experiment [6] it was not below 64 µM; in experiment [7], more than 64 µM; in [8], 4 µM (≈ 7.69 µg/mL); in [9] it was 4 µM (≈ 7.69 µg/mL); in experiment [10], 4 µM (≈ 7.69 µg/mL). Moreover, the MIC was 8 µM (≈ 15.4 µg/mL) with Streptococcus agalactiae and not below 64 µM in experiment [11].

`CC[C@H](C)[C@H](NC(=O)[C@H](CC(C)C)NC(=O)[C@@H](NC(=O)[C@@H](N)CC(=O)O)[C@@H](C)CC)C(=O)N[C@H](C(=O)N[C@H](C(=O)NCC(=O)NCC(=O)N[C@@H](CCCCN)C(=O)N[C@@H](CCCN=C(N)N)C(=O)N[C@@H](CCCN=C(N)N)C(=O)N[C@@H](CCCN=C(N)N)C(N)=O)C(C)C)[C@@H](C)CC` [DILIIVGGKRRR]: the MIC in the experiment on Escherichia coli 078 was not below 64 µM; in [1], more than 64 µM; against Escherichia coli UB1005, not below 64 µM; in experiment [2], not below 64 µM; in experiment [3] it was more than 64 µM; in [4], not below 64 µM. Further, the minimum inhibitory concentration (MIC) in experiment [5] was more than 64 µM; in experiment [6], not below 64 µM; in [7] it was more than 64 µM; in experiment [8] it was more than 64 µM; in experiment [9], more than 64 µM; in experiment [10], 8 µM (≈ 11.2 µg/mL). Moreover, the MIC against Streptococcus agalactiae is 5.66 µM (≈ 7.89 µg/mL); in experiment [11] it was not below 64 µM.

For `CC[C@H](C)[C@H](NC(=O)[C@H](CC(C)C)NC(=O)[C@@H](NC(=O)[C@@H](N)CC(=O)O)[C@@H](C)CC)C(=O)N[C@H](C(=O)N[C@H](C(=O)NCC(=O)NCC(=O)N[C@@H](CCCN=C(N)N)C(=O)N[C@@H](CCCN=C(N)N)C(=O)N[C@@H](CCCN=C(N)N)C(=O)N[C@@H](CCCN=C(N)N)C(=O)N[C@@H](CCCN=C(N)N)C(=O)N[C@@H](CCCN=C(N)N)C(=O)N[C@@H](CCCN=C(N)N)C(=O)N[C@@H](CCCN=C(N)N)C(N)=O)C(C)C)[C@@H](C)CC` [DILIIVGGRRRRRRRR], the minimum inhibitory concentration (MIC) against Escherichia coli 078 is not below 32 µM; in experiment [1], 4 µM (≈ 8.19 µg/mL); in the experiment on Escherichia coli UB1005, 8 µM (≈ 16.4 µg/mL); in experiment [2] it was not below 64 µM; in experiment [3] it was 8 µM (≈ 16.4 µg/mL); in experiment [4] it was 8 µM (≈ 16.4 µg/mL). Also, the minimum inhibitory concentration (MIC) is more than 64 µM in experiment [5]; not below 64 µM in experiment [6]; 4 µM (≈ 8.19 µg/mL) in experiment [7]; 2 µM (≈ 4.1 µg/mL) in [8]; 8 µM (≈ 16.4 µg/mL) in experiment [9]; 4 µM (≈ 8.19 µg/mL) in experiment [10]. In addition, the MIC is 5.66 µM (≈ 11.6 µg/mL) in the experiment with Streptococcus agalactiae and not below 64 µM in experiment [11].

With `CC[C@H](C)[C@H](NC(=O)[C@H](CC(C)C)NC(=O)[C@H](CCCCN)NC(=O)[C@@H](NC(=O)[C@@H](NC(=O)[C@H](Cc1cnc[nH]1)NC(=O)[C@@H]1CCCN1C(=O)[C@H](CC(C)C)NC(=O)[C@@H](NC(=O)[C@H](CCCCN)NC(=O)[C@H](C)NC(=O)[C@H](CC(C)C)NC(=O)[C@H](CC(C)C)NC(=O)[C@H](CCCCN)NC(=O)[C@H](C)NC(=O)[C@H](CCSC)NC(=O)CN)C(C)C)C(C)C)C(C)C)C(=O)N[C@@H](CCCCN)C(=O)O` [GMAKLLAKVLPHVVKLIK], the MIC in the experiment with Bacillus subtilis 168 stood at 1.3 µM (≈ 2.55 µg/mL); in experiment [12], 13.1 µM (≈ 25.7 µg/mL); in the experiment on Escherichia coli B it was 1.5 µM (≈ 2.94 µg/mL); in experiment [13], 0.8 µM (≈ 1.57 µg/mL); in the experiment on Pseudomonas aeruginosa, 17.5 µM (≈ 34.3 µg/mL); against Staphylococcus aureus, 2.7 µM (≈ 5.29 µg/mL).

Consider `NCCCC[C@H](NC(=O)[C@H](CCCCN)NC(=O)[C@H](CCCN=C(N)N)NC(=O)[C@H](CCC(=O)O)NC(=O)[C@@H](N)CCCCN)C(=O)N[C@@H](CCCN=C(N)N)C(=O)N[C@@H](CCCN=C(N)N)C(=O)N[C@@H](CCCN=C(N)N)C(N)=O` [KERKKRRR], for which the MIC is not below 64 µM in the experiment on Escherichia coli 078; more than 64 µM in experiment [1]; not below 64 µM in the experiment on Escherichia coli UB1005; not below 64 µM in experiment [2]; more than 64 µM in [3]; not below 64 µM in experiment [4]. Besides, the MIC in [5] was more than 64 µM; in experiment [6], not below 64 µM; in experiment [7] it was more than 64 µM; in experiment [8], more than 64 µM; in [9] it was more than 64 µM; in experiment [10], not below 64 µM. The MIC (in the experiment on Streptococcus agalactiae; in experiment [11]) was not below 64 µM throughout.

On to `CC[C@H](C)[C@H](NC(=O)[C@H](C)NC(=O)[C@H](C)NC(=O)[C@H](C)NC(=O)[C@H](CCCCN)NC(=O)[C@@H](N)CCCCN)C(=O)N[C@@H](C)C(=O)N[C@@H](C)C(=O)N[C@@H](C)C(=O)N[C@@H](C)C(=O)N[C@@H](C)C(=O)N[C@H](C(=O)N[C@@H](C)C(=O)N[C@@H](C)C(=O)N[C@@H](Cc1c[nH]c2ccccc12)C(=O)N[C@@H](C)C(=O)N[C@@H](C)C(=O)N[C@H](C(=O)N[C@@H](C)C(=O)N[C@@H](C)C(=O)N[C@@H](C)C(=O)N[C@@H](CCCCN)C(=O)N[C@@H](CCCCN)C(=O)N[C@@H](CCCCN)C(=O)N[C@@H](CCCCN)C(N)=O)[C@@H](C)CC)[C@@H](C)CC` [KKAAAIAAAAAIAAWAAIAAAKKKK], for which the minimum inhibitory concentration (MIC) in experiment [14] was 0.25 µM (≈ 0.594 µg/mL); in the experiment on Escherichia coli DC2, 16 µM (≈ 38 µg/mL); in the experiment with Escherichia coli UB1005, not below 32 µM; in experiment [15], 4 µM (≈ 9.51 µg/mL).

For `CC[C@H](C)[C@H](NC(=O)[C@H](CCCCN)NC(=O)CNC(=O)[C@H](Cc1c[nH]c2ccccc12)NC(=O)[C@H](CC(N)=O)NC(=O)[C@@H](N)CC(C)C)C(=O)N[C@@H](CC(C)C)C(=O)N[C@@H](CCCCN)C(=O)N[C@@H](Cc1cnc[nH]1)C(=O)N[C@H](C(=O)N[C@H](C(=O)N[C@@H](CCCCN)C(N)=O)[C@@H](C)CC)[C@@H](C)CC` [LNWGKILKHIIK], the MIC in the experiment on Bacillus subtilis 168 came out at 1.7 µM (≈ 2.49 µg/mL); in experiment [12] it was 7.3 µM (≈ 10.7 µg/mL); in the experiment with Escherichia coli B, 4 µM (≈ 5.85 µg/mL); in experiment [13] it was 2.2 µM (≈ 3.22 µg/mL); with Pseudomonas aeruginosa it was 20.8 µM (≈ 30.4 µg/mL); in the experiment on Staphylococcus aureus, 8.7 µM (≈ 12.7 µg/mL).

For the origin of these results see DBAASP.
